PubChem BioAssay AID1259411 (Chemical Carcinogenesis Research Information System (CCRIS), 2018)
Active and inactive are the calls of the source. No rule for the calls is given here.

Test system: rodent carcinogenicity bioassays, tumor incidence
Assay: CCRIS carcinogenicity studies
How it was run: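 Archive of carcinogenicity, mutagenicity, tumor promotion and tumor inhibition results drawn from journals, NCI reports and other sources, expert-reviewed; covers 1985-2011 and is no longer updated.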

## ClC1=C(Cl)C2(Cl)C3C(Cl)C=CC3C1(Cl)C2(Cl)Cl (centres undefined)
Species: MOUSE, Strain/Sex: B6C3F1/FEMALE, Route: ORAL, Dose: 0, 9, 18 PPM IN DIET, Dose: 0, 9, 18 PPM IN DIET, Tumor Site: Type of Lesion: LIVER: HEPATOCELLULAR CARCINOMA
  carcinogen call: active; positive
Species: MOUSE, Strain/Sex: B6C3F1/MALE, Route: ORAL, Dose: 0, 6.1, 13.8 PPM IN DIET, TWA, Dose: 0, 6.1, 13.8 PPM IN DIET, TWA, Tumor Site: Type of Lesion: LIVER: HEPATOCELLULAR CARCINOMA
  carcinogen call: active; positive
Species: RAT, Strain/Sex: OSBORNE-MENDEL/FEMALE, Route: ORAL, Dose: 0, 25.7, 51.3 PPM IN DIET FOR 80 WK (STUDY DURATION: 111 WK), Dose: 0, 25.7, 51.3 PPM IN DIET FOR 80 WK (STUDY DURATION: 111 WK), Tumor Site: Type of Lesion: THYROID GLAND: FOLLICULAR CELL CARCINOMA OR ADENOMA
  carcinogen call: equivocal
Species: RAT, Strain/Sex: OSBORNE-MENDEL/MALE, Route: ORAL, Dose: 0, 38.9, 77.9 PPM IN DIET, TWA, Dose: 0, 38.9, 77.9 PPM IN DIET, TWA
  carcinogen call: inactive; negative

## O=C(O)Nc1ccc(-c2ccccc2)cc1
Species: RAT, Strain/Sex: STRAIN-CD/FEMALE, Route: INTRAPERITONEAL, Dose: 0, 100 UMOL/KG BW 2/WK FOR 6 WK (STUDY DURATION: 62 WK)
  carcinogen call: inactive; negative

## COc1cccc2c1cc([N+](=O)[O-])c1c(C(=O)O)cc3c(c12)OCO3
Species: RAT, Strain/Sex: SPRAGUE-DAWLEY/FEMALE, Route: ORAL, GAVAGE, Dose: 50 MG/KG BW/D FOR 3 D (STUDY DURATION: 6 MO), Tumor Site: Type of Lesion: KIDNEY: TUMORS, 29% (THERE WERE 3 MESENCHYMAL TUMORS AND 1 RENAL ONCOCYTOMA IN 14 ANIMALS)
  carcinogen call: active; positive

## c1ccc2c(c1)cc1c3ccccc3c3cccc4ccc2c1c43
Species: MOUSE, Route: DERMAL, Tumor Site: Type of Lesion: INTEGUMENTARY SYSTEM (SKIN)
  carcinogen call: active; positive
Species: MOUSE, Route: SUBCUTANEOUS, Tumor Site: Type of Lesion: INJECTION SITE
  carcinogen call: active; positive

## O[C@H]1C=Cc2cc3ccc4ccccc4c3nc2[C@@H]1O
Species: MOUSE, Strain/Sex: SWISS/FEMALE, Route: INTRAPERITONEAL, Dose: 0, 1.05 UMOL GIVEN AS 150 NMOL IN 5 µL DMSO WITHIN 24 HR OF BIRTH, 300 NMOL IN 10 µL DMSO ON D 8 OF LIFE, AND 600 NMOL I, Tumor Site: Type of Lesion: LUNG: ADENOMA
  carcinogen call: active; positive
Species: MOUSE, Strain/Sex: SWISS/MALE, Route: INTRAPERITONEAL, Dose: 0, 1.05 UMOL GIVEN AS 150 NMOL IN 5 µL DMSO WITHIN 24 HR OF BIRTH, 300 NMOL IN 10 µL DMSO ON D 8 OF LIFE, AND 600 NMOL I, Tumor Site: Type of Lesion: LUNG: ADENOMA, LIVER: NEOPLASTIC NODULE
  carcinogen call: active; positive

## CCOS(C)(=O)=O
Species: MOUSE, Route: INTRAPERITONEAL, Tumor Site: Type of Lesion: LUNG, KIDNEY
  carcinogen call: active; positive
Species: MOUSE, Route: SUBCUTANEOUS, Tumor Site: Type of Lesion: LUNG
  carcinogen call: active; positive
Species: MOUSE, Strain/Sex: ICR/FEMALE, Route: SUBCUTANEOUS, Dose: 0, 20 UMOL/MOUSE IN TRIOCTANOIN INTO LEFT FLANK, 1/WK FOR 52 WK (STUDY DURATION: 450 D), Tumor Site: Type of Lesion: THYMUS GLAND: LYMPHOMA, LUNG: ADENOMA
  carcinogen call: active; positive
Species: RAT, Route: INTRAPERITONEAL, Tumor Site: Type of Lesion: LUNG, KIDNEY
  carcinogen call: active; positive

## CCCCC/C=N/N(C)C=O
Species: MOUSE, Strain/Sex: SWISS/FEMALE, Route: GAVAGE, Dose: 0, 50, 100 UG/G/BW IN 0.01 ML OF PROPYLENE GLYCOL 1/WK FOR 52 WK (STUDY DURATION: 130 WK), Dose: 0, 50, 100 UG/G/BW IN 0.01 ML OF PROPYLENE GLYCOL 1/WK FOR 52 WK (STUDY DURATION: 130 WK), Tumor Site: Type of Lesion: LUNG: ADENOMA OR ADENOCARCINOMA, LIVER: HEPATOMA OR CARCINOMA
  carcinogen call: active; positive
Species: MOUSE, Strain/Sex: SWISS/MALE, Route: GAVAGE, Dose: 0, 50, 100 UG/G/BW IN 0.01 ML OF PROPYLENE GLYCOL 1/WK FOR 52 WK (STUDY DURATION: 130 WK), Dose: 0, 50, 100 UG/G/BW IN 0.01 ML OF PROPYLENE GLYCOL 1/WK FOR 52 WK (STUDY DURATION: 130 WK), Tumor Site: Type of Lesion: LUNG: ADENOMA AND ADENOCARCINOMA, PREPUTIAL GLAND: SQUAMOUS CELL PAPILLOMA OR SQUAMOUS CELL CARCINOMA OR ADENOMA
  carcinogen call: active; positive

## O.O.O.O.O.[Cd+2].[Cd+2].[Cl-].[Cl-].[Cl-].[Cl-]
Species: HAMSTER, Strain/Sex: SYRIAN/FEMALE, Route: SUBCUTANEOUS, Dose: 0, 30, 40, 50 UMOL/KG ONCE ON THE FOURTH DAY OF THE ESTROUS CYCLE (STUDY DURATION: 78 WK), Dose: 0, 30, 40, 50 UMOL/KG ONCE ON THE FOURTH DAY OF THE ESTROUS CYCLE (STUDY DURATION: 78 WK)
  carcinogen call: inactive; negative
Species: HAMSTER, Strain/Sex: SYRIAN/MALE, Route: SUBCUTANEOUS, Dose: 0, 20 UMOL/KG ONCE (STUDY DURATION: 104 WK), Tumor Site: Type of Lesion: ADRENAL GLAND: TUMOR
  carcinogen call: active; positive
Species: MOUSE, Strain/Sex: C57/MALE, Route: SUBCUTANEOUS, Dose: 0, 20 UMOL/KG ONCE (STUDY DURATION: 104 WK)
  carcinogen call: inactive; negative
Species: MOUSE, Strain/Sex: NFS/MALE, Route: SUBCUTANEOUS, Dose: 0, 20 UMOL/KG ONCE (STUDY DURATION: 104 WK), Tumor Site: Type of Lesion: LYMPHOID TISSUE: LYMPHOMA
  carcinogen call: active; positive
Species: RAT, Strain/Sex: WISTAR/FEMALE, Route: ORAL, Dose: 0, 1, 3, 10, 50 PPM IN DIET FOR 104 WK (STUDY DURATION: 2 YR), Dose: 0, 1, 3, 10, 50 PPM IN DIET FOR 104 WK (STUDY DURATION: 2 YR)
  carcinogen call: inactive; negative
Species: RAT, Strain/Sex: WISTAR/MALE, Route: ORAL, Dose: 0, 1, 3, 10, 50 PPM IN DIET FOR 104 WK (STUDY DURATION: 2 YR), Dose: 0, 1, 3, 10, 50 PPM IN DIET FOR 104 WK (STUDY DURATION: 2 YR)
  carcinogen call: inactive; negative
Species: RAT, Strain/Sex: WISTAR/MALE, Route: ORAL, Dose: 0, 25, 50, 100, 200 PPM IN DIET FOR 77 WK TO RATS MAINTAINED ON ZINC ADEQUATE (60 PPM) DIET (STUDY DURATION: 79 WK), Dose: 0, 25, 50, 100, 200 PPM IN DIET FOR 77 WK TO RATS MAINTAINED ON ZINC ADEQUATE (60 PPM) DIET (STUDY DURATION: 79 WK), Tumor Site: Type of Lesion: HEMATOPOIETIC SYSTEM: LEUKEMIA, TESTIS: TUMOR
  carcinogen call: active; positive
Species: RAT, Strain/Sex: WISTAR/MALE, Route: ORAL, Dose: 0, 25, 50, 100, 200 PPM IN DIET FOR 77 WK TO RATS MAINTAINED ON ZINC DEFICIENT (7 PPM) DIET (STUDY DURATION: 79 WK), Dose: 0, 25, 50, 100, 200 PPM IN DIET FOR 77 WK TO RATS MAINTAINED ON ZINC DEFICIENT (7 PPM) DIET (STUDY DURATION: 79 WK), Tumor Site: Type of Lesion: HEMATOPOIETIC SYSTEM: LEUKEMIA
  carcinogen call: active; positive
Species: RAT, Strain/Sex: WISTAR/MALE, Route: SUBCUTANEOUS, Dose: 0, 5, 10, 30 UMOL ONCE ADMINISTERED TO RATS FED DIETS ADEQUATE (60 PPM) IN ZINC (STUDY DURATION: 92 WK), Dose: 0, 5, 10, 30 UMOL ONCE ADMINISTERED TO RATS FED DIETS ADEQUATE (60 PPM) IN ZINC (STUDY DURATION: 92 WK), Tumor Site: Type of Lesion: TESTES: ADENOMA
  carcinogen call: active; positive
Species: RAT, Strain/Sex: WISTAR/MALE, Route: SUBCUTANEOUS, Dose: 0, 5, 10, 30 UMOL ONCE ADMINISTERED TO RATS FED DIETS DEFICIENT (7 PPM) IN ZINC (STUDY DURATION: 92 WK), Dose: 0, 5, 10, 30 UMOL ONCE ADMINISTERED TO RATS FED DIETS DEFICIENT (7 PPM) IN ZINC (STUDY DURATION: 92 WK), Tumor Site: Type of Lesion: TESTES: ADENOMA, INJECTION SITE: SARCOMA
  carcinogen call: active; positive

## ClC/C=C/CCl
Species: RAT, Strain/Sex: CD/MALE, Route: INHALATION, Dose: 0, 0.1, 0.3, 1.0 PPM 6 HR/D 5 D/WK FOR 86 WK (STUDY DURATION: 86 WK), Dose: 0, 0.1, 0.3, 1.0 PPM 6 HR/D 5 D/WK FOR 86 WK (STUDY DURATION: 86 WK), Tumor Site: Type of Lesion: NASAL CAVITY: ADENOMA, ADENOCARCINOMA, CARCINOSARCOMA, MIXED CARCINOMA
  carcinogen call: active; positive
Species: Rat, Strain/Sex: CD BR/Female (140/group), Route: Inhalation, Dose: 0, 0.5 6 hr/d for 2 yr, 5 ppm 6 hr/d lowered to 2.5 ppm after 7 mo and continued an additional 5 mo with a 1-yr maintena, Dose: 0, 0.5 6 hr/d for 2 yr, 5 ppm 6 hr/d lowered to 2.5 ppm after 7 mo and continued an additional 5 mo with a 1-yr maintena, Tumor Site: Type of Lesion: Nasal Passages: Benign (0 (0%), 23 (18%), 5 (3.9%)) and malignant tumors (0 (0%), 2 (1.6%), 113 (88.3%))
  carcinogen call: active; positive
Species: Rat, Strain/Sex: CD BR/Male (140/group), Route: Inhalation, Dose: 0, 0.5 6 hr/d for 2 yr, 5 ppm 6 hr/d lowered to 2.5 ppm after 7 mo and continued an additional 5 mo with a 1-yr maintena, Dose: 0, 0.5 6 hr/d for 2 yr, 5 ppm 6 hr/d lowered to 2.5 ppm after 7 mo and continued an additional 5 mo with a 1-yr maintena, Tumor Site: Type of Lesion: Nasal Passages: Benign (0 (0%), 33 (25.4%), 2 (1.6%)) and malignant tumors (0 (0%), 11 (8.5%), 114 (88.4%))
  carcinogen call: active; positive
